Reference: patent publication US9375497B2, “[F-18]-labeled L-glutamic acid, [F-18]-labeled L-glutamine, derivatives thereof and use thereof and processes for their preparation” (BAYER SCHERING PHARMA AKTIENGESELLSCHAFT, priority 2006, dated 2016)

Tests used:
[1] = tested on: murine B16F1 melanoma model in C57BI6 mice; assay: Tumor enrichment and tissue distribution, B16F1 melanoma model; settings: for Tumor/tissue quotient, Blood / Tumor/tissue quotient, Brain / Tumor/tissue quotient, Fat / Tumor/tissue quotient, Heart / Tumor/tissue quotient, Intestine / Tumor/tissue quotient, Kidney / Tumor/tissue quotient, Liver / Tumor/tissue quotient, Lung / Tumor/tissue quotient, Muscle / Tumor/tissue quotient, Ovary / Tumor/tissue quotient, Skin / Tumor/tissue quotient, Spleen / Tumor/tissue quotient, Stomach / Tumor/tissue quotient, Uterus: single i.v.; for Tissue uptake, Blood / Tissue uptake, Brain / Tissue uptake, Fat / Tissue uptake, Heart / Tissue uptake, Intestine / Tissue uptake, Kidney / Tissue uptake, Liver / Tissue uptake, Lung / Tissue uptake, Muscle / Tissue uptake, Ovary / Tissue uptake, Skin / Tissue uptake, Spleen / Tissue uptake, Stomach / Tissue uptake, Tumor / Tissue uptake, Uterus: single i.v. 370 kBq; for tumor/blood quotient / tumor/blood quotient, factor higher than for [^14C]5-glutamic acid / tumor/liver quotient / tumor/liver quotient, factor higher than for [^14C]5-glutamic acid: B16F1 melanoma model
Protocol: For the evaluation of the tumor enrichment and the tissue distribution in experimental animals, [^18F]-4-glutamic acid was tested in a murine F9 teratocarcinoma model in NMRI nude mice and a murine B16F1 melanoma model in C57BI6 mice.
For this, 1×10^6 cells (F9) or 5×10^5 cells (B16F1) respectively were suspended in 100 μl of phosphate-buffered physiological saline solution and inoculated subcutaneously into the right, rear flank of the corresponding experimental animal species (NMRI for F9 and 057-BI6 for B16F1) (Berndorff et al. Clin. Cancer Res. 2005, 11, 2005). […] [^18F]-4-Glutamic acid (370 kBq, in 100 μl of physiological saline solution) was administered intravenously to the tail vein. After 15; 60 and 120 min in each case, the animals were killed, organ and tumor removed, weighed and measured for radioactive content.

[2] = tested on: A549 (non-small-cell bronchial carcinoma) cells; assay: Tumor cell uptake in A549 cells; type: cell-based, human; settings: 250 kBq/well, compared to [^18F]FDG
Protocol: For the evaluation of the tumor cell uptake of [^18F]glutamic acid, cell uptake experiments were carried out in human A549 (non-small-cell bronchial carcinoma) and HT29 (colonic carcinoma) cells. The tumor cell uptake of the glutamic acid derivatives was compared to
[^18F]FDG (gold standard for oncological PET investigations).
FIG. 2: Comparison of the time-dependent tumor cell uptake of [^18F]-4-glutamic acid [20-35 μM] (on the left) and [F-18]FDG [2 μM] (on the right) in A549 cells. The cells were incubated with 250 kBq/well. For displacement experiments, L-glutamic acid (1 mM) or glucose (5 mM) was used (mean value±standard deviation, n=3).

NC(CC([18F])C(=O)O)C(=O)O (centres unmarked) [[^18F]4-glutamic acid, 4-[F-18]fluoroglutamic acid]
Tumor/tissue quotient, Blood ([1]; 0.25 h (times as Table 3)): 1.21 | Tumor/tissue quotient, Brain ([1]; 0.25 h (times as Table 3)): 4.89 | Tumor/tissue quotient, Fat ([1]; 0.25 h (times as Table 3)): 3.95 | Tumor/tissue quotient, Heart ([1]; 0.25 h (times as Table 3)): 1.06 | Tumor/tissue quotient, Intestine ([1]; 0.25 h (times as Table 3)): 1.19 | Tumor/tissue quotient, Kidney ([1]; 0.25 h (times as Table 3)): 0.31 | Tumor/tissue quotient, Liver ([1]; 0.25 h (times as Table 3)): 0.93 | Tumor/tissue quotient, Lung ([1]; 0.25 h (times as Table 3)): 0.32 | Tumor/tissue quotient, Muscle ([1]; 0.25 h (times as Table 3)): 1.72 | Tumor/tissue quotient, Ovary ([1]; 0.25 h (times as Table 3)): 1.03 | Tumor/tissue quotient, Skin ([1]; 0.25 h (times as Table 3)): 1.49 | Tumor/tissue quotient, Spleen ([1]; 0.25 h (times as Table 3)): 0.89 | Tumor/tissue quotient, Stomach ([1]; 0.25 h (times as Table 3)): 1.05 | Tumor/tissue quotient, Uterus ([1]; 0.25 h (times as Table 3)): 0.56 | Tissue uptake, Blood ([1]; 0.25 h): 2.93 % dose/g | Tissue uptake, Brain ([1]; 0.25 h): 0.73 % dose/g | Tissue uptake, Fat ([1]; 0.25 h): 0.92 % dose/g | Tissue uptake, Heart ([1]; 0.25 h): 3.36 % dose/g | Tissue uptake, Intestine ([1]; 0.25 h): 3.00 % dose/g | Tissue uptake, Kidney ([1]; 0.25 h): 11.35 % dose/g | Tissue uptake, Liver ([1]; 0.25 h): 3.81 % dose/g | Tissue uptake, Lung ([1]; 0.25 h): 11.10 % dose/g | Tissue uptake, Muscle ([1]; 0.25 h): 2.19 % dose/g | Tissue uptake, Ovary ([1]; 0.25 h): 3.57 % dose/g | Tissue uptake, Skin ([1]; 0.25 h): 2.43 % dose/g | Tissue uptake, Spleen ([1]; 0.25 h): 4.07 % dose/g | Tissue uptake, Stomach ([1]; 0.25 h): 3.41 % dose/g | Tissue uptake, Tumor ([1]; 0.25 h): 3.55 % dose/g | Tissue uptake, Uterus ([1]; 0.25 h): 7.17 % dose/g | Tumor/tissue quotient, Blood ([1]; 1.0 h (times as Table 3)): 5.25 | Tumor/tissue quotient, Brain ([1]; 1.0 h (times as Table 3)): 4.7 | Tumor/tissue quotient, Fat ([1]; 1.0 h (times as Table 3)): 14.16 | Tumor/tissue quotient, Heart ([1]; 1.0 h (times as Table 3)): 3.54 | Tumor/tissue quotient, Intestine ([1]; 1.0 h (times as Table 3)): 1.56 | Tumor/tissue quotient, Kidney ([1]; 1.0 h (times as Table 3)): 1.25 | Tumor/tissue quotient, Liver ([1]; 1.0 h (times as Table 3)): 3.63 | Tumor/tissue quotient, Lung ([1]; 1.0 h (times as Table 3)): 1.51 | Tumor/tissue quotient, Muscle ([1]; 1.0 h (times as Table 3)): 4.3 | Tumor/tissue quotient, Ovary ([1]; 1.0 h (times as Table 3)): 4.38 | Tumor/tissue quotient, Skin ([1]; 1.0 h (times as Table 3)): 5.43 | Tumor/tissue quotient, Spleen ([1]; 1.0 h (times as Table 3)): 2.81 | Tumor/tissue quotient, Stomach ([1]; 1.0 h (times as Table 3)): 4.02 | Tumor/tissue quotient, Uterus ([1]; 1.0 h (times as Table 3)): 3.84 | Tissue uptake, Blood ([1]; 1.0 h): 0.48 % dose/g | Tissue uptake, Brain ([1]; 1.0 h): 0.49 % dose/g | Tissue uptake, Fat ([1]; 1.0 h): 0.18 % dose/g | Tissue uptake, Heart ([1]; 1.0 h): 0.71 % dose/g | Tissue uptake, Intestine ([1]; 1.0 h): 1.28 % dose/g | Tissue uptake, Kidney ([1]; 1.0 h): 2.25 % dose/g | Tissue uptake, Liver ([1]; 1.0 h): 0.64 % dose/g | Tissue uptake, Lung ([1]; 1.0 h): 1.47 % dose/g | Tissue uptake, Muscle ([1]; 1.0 h): 0.53 % dose/g | Tissue uptake, Ovary ([1]; 1.0 h): 0.58 % dose/g | Tissue uptake, Skin ([1]; 1.0 h): 0.48 % dose/g | Tissue uptake, Spleen ([1]; 1.0 h): 0.81 % dose/g | Tissue uptake, Stomach ([1]; 1.0 h): 0.59 % dose/g | Tissue uptake, Tumor ([1]; 1.0 h): 2.14 % dose/g | Tissue uptake, Uterus ([1]; 1.0 h): 0.69 % dose/g | Tumor/tissue quotient, Blood ([1]; 2.0 h (times as Table 3)): 7.93 | Tumor/tissue quotient, Brain ([1]; 2.0 h (times as Table 3)): 3.55 | Tumor/tissue quotient, Fat ([1]; 2.0 h (times as Table 3)): 8.85 | Tumor/tissue quotient, Heart ([1]; 2.0 h (times as Table 3)): 5.06 | Tumor/tissue quotient, Intestine ([1]; 2.0 h (times as Table 3)): 0.87 | Tumor/tissue quotient, Kidney ([1]; 2.0 h (times as Table 3)): 2.22 | Tumor/tissue quotient, Liver ([1]; 2.0 h (times as Table 3)): 4.42 | Tumor/tissue quotient, Lung ([1]; 2.0 h (times as Table 3)): 2.34 | Tumor/tissue quotient, Muscle ([1]; 2.0 h (times as Table 3)): 6.95 | Tumor/tissue quotient, Ovary ([1]; 2.0 h (times as Table 3)): 3.02 | Tumor/tissue quotient, Skin ([1]; 2.0 h (times as Table 3)): 5.94 | Tumor/tissue quotient, Spleen ([1]; 2.0 h (times as Table 3)): 4.03 | Tumor/tissue quotient, Stomach ([1]; 2.0 h (times as Table 3)): 4.24 | Tumor/tissue quotient, Uterus ([1]; 2.0 h (times as Table 3)): 2.59 | Tissue uptake, Blood ([1]; 2.0 h): 0.16 % dose/g | Tissue uptake, Brain ([1]; 2.0 h): 0.36 % dose/g | Tissue uptake, Fat ([1]; 2.0 h): 0.16 % dose/g | Tissue uptake, Heart ([1]; 2.0 h): 0.28 % dose/g | Tissue uptake, Intestine ([1]; 2.0 h): 1.46 % dose/g | Tissue uptake, Kidney ([1]; 2.0 h): 0.57 % dose/g | Tissue uptake, Liver ([1]; 2.0 h): 0.29 % dose/g | Tissue uptake, Lung ([1]; 2.0 h): 0.56 % dose/g | Tissue uptake, Muscle ([1]; 2.0 h): 0.24 % dose/g | Tissue uptake, Ovary ([1]; 2.0 h): 0.45 % dose/g | Tissue uptake, Skin ([1]; 2.0 h): 0.22 % dose/g | Tissue uptake, Spleen ([1]; 2.0 h): 0.31 % dose/g | Tissue uptake, Stomach ([1]; 2.0 h): 0.30 % dose/g | Tissue uptake, Tumor ([1]; 2.0 h): 1.27 % dose/g | Tissue uptake, Uterus ([1]; 2.0 h): 0.76 % dose/g | tumor/blood quotient ([1]; 1 h p.i.): 5.3 | tumor/blood quotient, factor higher than for [^14C]5-glutamic acid ([1]; 1 h p.i.): 2 | tumor/liver quotient ([1]; 1 h p.i.): 3.6 | tumor/liver quotient, factor higher than for [^14C]5-glutamic acid ([1]; 1 h p.i.): 4.6 | tumor/blood quotient ([1]; 2 h p.i.): 7.9 | tumor/blood quotient, factor higher than for [^14C]5-glutamic acid ([1]; 2 h p.i.): 3.5 | tumor/liver quotient ([1]; 2 h p.i.): 4.4 | tumor/liver quotient, factor higher than for [^14C]5-glutamic acid ([1]; 2 h p.i.): 5.5 | tumor enrichment ([1]; B16F1 melanoma, 1 h after intravenous administration): 2.14 % ID/g | maximal tumor enrichment ([1]; B16 melanoma, after intravenous injection (15 min)): 3.55 % ID/g | tumor cell uptake [2]: surprisingly high uptake
